Melting point data for 33 compounds are collected here from patent publication US7163952B2, “Azole compound and medicinal use thereof” (Japan Tobacco Inc., priority 2001, dated 2007).

For orientation: melting point means the temperature of the solid-liquid transition.

As for `O=C(O)c1ccc(CN(CC2CCCCC2)c2nc(-c3ccc(N(Cc4ccc(Cl)c(Cl)c4)Cc4ccc(Cl)c(Cl)c4)cc3)cs2)cc1` [Example 117, 4-((N-(4-(4-(bis(3,4-dichlorobenzyl)amino)phenyl)-2-thiazolyl)-N-cyclohexylmethylamino)methyl)benzoic acid], the melting point was 120 °C (dec.). Next, `CC(C)c1ccc(CNc2ccc(-c3csc(N(CC4CCCCC4)c4ccc(C(=O)O)cc4)n3)cc2)cc1` [Example 130, 4-(N-cyclohexylmethyl-N-(4-(4-(4-isopropylbenzylamino)phenyl)-2-thiazolyl)amino)benzoic acid]: 200 to 202 °C; `CN(Cc1ccc([C@H]2CC[C@@H](O)CC2)cc1)c1ccc(-c2csc(N(C)Cc3ccc(C(=O)O)cc3)n2)cc1` [Example 194, cis-4-((N-(4-(4-(N-(4-(4-hydroxycyclohexyl)benzyl)-N-methylamino)phenyl)-2-thiazolyl)-N-methylamino)methyl)benzoic acid]: 180 to 181 °C. In the case of `CC(C)N(c1ccc(OCC(=O)O)cc1)c1nc(-c2ccc(NC(=O)c3ccc(N4CCCCC4)cc3)cc2)cs1` [Example 53, (4-(N-isopropyl-N-(4-(4-(4-piperidinobenzoylamino)phenyl)-2-thiazolyl)amino)phenoxy)acetic acid] it was 220 °C (dec.). As for `CN(CCc1ccc(Cl)c(Cl)c1)c1ccc(-c2csc(N(C)Cc3ccc(C(=O)O)cc3)n2)cc1` [Example 224, 4-((N-(4-(4-(N-(2-(3,4-dichlorophenyl)ethyl)-N-methylamino)phenyl)-2-thiazolyl)-N-methylamino)methyl)benzoic acid], the melting point is 151 to 152 °C. On to `CCN(c1ccc(C(=O)O)cc1)c1nc(-c2ccc(NC(=O)c3ccccc3)cc2)cs1` [Example 7, 4-(N-(4-(4-benzoylaminophenyl)-2-thiazolyl)-N-ethylamino)benzoic acid], for which the melting point was 250 °C (dec.). Next, `CN(Cc1ccc(C(=O)O)cc1)c1nc(-c2ccc(CN3CCN(C(=O)OCc4ccccc4)CC3)cc2)cs1` [Example 243, benzyl 4-(4-(2-(N-(4-carboxybenzyl)-N-methylamino)-4-thiazolyl)benzyl)-piperazine-1-carboxylate]: 122 to 127 °C. Next, `COc1ccc(OCc2ccc(C(F)(F)F)cc2)c(-c2csc(Nc3ccc(C(=O)O)cc3)n2)c1` [Example 155, 4-(4-(5-methoxy-2-(4-trifluoromethylbenzyloxy)phenyl)-2-thiazolylamino)benzoic acid]: 218 to 219 °C. On to `O=C(O)c1ccc(N(CCC2CCCCC2)c2nc(-c3cc(Cl)ccc3OCc3ccccc3)cs2)cc1` [Example 152, 4-(N-(4-(2-benzyloxy-5-chlorophenyl)-2-thiazolyl)-N-(2-cyclohexylethyl)amino)benzoic acid], for which the melting point lay within 160 to 163 °C. Next, `CN(c1ccc(C(=O)O)cc1)c1nc(-c2ccc(NC(=O)c3ccc(C(C)(C)C)cc3)cc2)cs1` [Example 20, 4-(N-(4-(4-(4-tert-butylbenzoylamino)phenyl)-2-thiazolyl)-N-methylamino)benzoic acid]: 250 °C (dec.); `CC(C)N(c1cccc(C(=O)O)c1)c1nc(-c2ccc(NC(=O)c3ccc(N4CCCCC4)cc3)cc2)cs1.Cl`: 220 °C (dec.). In the case of `CC(C)c1ccc(COc2ccc(Cl)cc2-c2csc(Nc3ccc(C(=O)O)cc3)n2)cc1` [Example 173, 4-(4-(5-chloro-2-(4-isopropylbenzyloxy)phenyl)-2-thiazolylamino)benzoic acid] it was 215 to 218 °C; in that of `CC(C)N(c1ccc(OCC(=O)O)cc1)c1nc(-c2ccc(NC(=O)c3cc(Cl)cc(Cl)c3)cc2)cs1` [Example 56, (4-(N-(4-(4-(3,5-dichlorobenzoylamino)phenyl)-2-thiazolyl)-N-isopropylamino)phenoxy)acetic acid], 192 to 194 °C; in that of `CN(CCc1ccc(C(C)(C)C)cc1)c1ccc(-c2csc(N(C)Cc3ccc(C(=O)O)cc3)n2)cc1` [Example 235, 4-((N-(4-(4-(N-(2-(4-tert-butylphenyl)ethyl)-N-methylamino)phenyl)-2-thiazolyl)-N-methylamino)methyl)benzoic acid], 162 °C. The compound `O=C(O)c1ccc(N(CC2CCCCC2)c2nc(-c3cccc(OCc4ccc(C5CCCCC5)cc4)c3)cs2)cc1` [Example 142, 4-(N-(4-(3-(4-cyclohexylbenzyloxy)phenyl)-2-thiazolyl)-N-cyclohexylmethylamino)benzoic acid] registered a melting point of 195 to 197 °C. In the case of `O=C(O)c1ccc(C(=O)c2nc(-c3ccc(OCc4ccc(C5CCCCC5)cc4)cc3)cs2)cc1` [Example 71, 4-(4-(4-(4-cyclohexylbenzyloxy)phenyl)-2-thiazolecarbonyl)benzoic acid] it was 259 to 261 °C; in that of `CN(Cc1ccc(C(=O)O)cc1)c1nc(-c2ccc(CN3CCN(c4ccccc4)CC3)cc2)cs1` [Example 239, 4-((N-methyl-N-(4-(4-(4-phenyl-1-piperazinylmethyl)phenyl)-2-thiazolyl)amino)methyl)benzoic acid], 159 to 163 °C.

Regarding `CC(C)(c1ccc(C(=O)O)cc1)c1nc(-c2ccc(OCc3ccc(Cl)c(Cl)c3)cc2)cs1` [Example 90, 4-(1-(4-(4-(3,4-dichlorobenzyloxy)phenyl)-2-thiazolyl)-1-methylethyl)benzoic acid], the melting point was in the range of 170 to 172 °C. With `CC(C)CN(c1ccc(C(=O)O)cc1)c1nc(-c2ccc(NC(=O)c3ccccc3)cc2)cs1` [Example 15, 4-(N-(4-(4-benzoylaminophenyl)-2-thiazolyl)-N-isobutylamino)benzoic acid], the melting point was 234 to 235 °C. In the case of `COc1ccc(OCc2ccc(C(F)(F)F)cc2)c(-c2csc(Nc3ccc(C(=O)O)cc3OCCC3CCCCC3)n2)c1` [Example 171, 3-(2-cyclohexylethoxy)-4-(4-(5-methoxy-2-(4-trifluoromethylbenzyloxy)phenyl)-2-thiazolylamino)benzoic acid], the melting point lay in the range of 111 to 114 °C. On to `CC(C)N(c1ccc(C(=O)[O-])cc1)c1nc(-c2ccc(NC(=O)c3ccc(N4CCN(C)CC4)cc3)cc2)cs1.[Na+]` [Example 37, sodium 4-(N-isopropyl-N-(4-(4-(4-(4-methyl-1-piperazinyl)benzoylamino)phenyl)-2-thiazolyl)amino)benzoate], for which the melting point was 230 °C (dec.). With `CC(C)(C)c1ccc(COc2ccc3nc(-c4csc(N(CC5CCCCC5)c5ccc(C(=O)O)cc5)n4)oc3c2)cc1` [Example 188, 4-(N-(4-(6-(4-tert-butylbenzyloxy)-2-benzooxazolyl)-2-thiazolyl)-N-cyclohexylmethylamino)benzoic acid], the melting point is 230 °C (dec.). In the case of `CC(C)N(c1ccc(C(=O)O)cc1)c1nc(-c2ccc(NC(=O)c3ccccc3)cc2)cs1` [Example 9, 4-(N-(4-(4-benzoylaminophenyl)-2-thiazolyl)-N-isopropylamino)benzoic acid] it was 234 to 236 °C; in that of `CC(C)N(c1nc(-c2ccc(NC(=O)c3ccc(C4CCCCC4)cc3)cc2)cs1)c1c(F)c(F)c(C(=O)O)c(F)c1F` [Example 52, 4-(N-(4-(4-(4-cyclohexylbenzoylamino)phenyl)-2-thiazolyl)-N-isopropylamino)-2,3,5,6-tetrafluorobenzoic acid], 153 to 157 °C.

`O=C(O)c1ccc(Nc2nc(-c3ccc(NC(=O)c4ccc(C5CCCCC5)cc4)cc3)cs2)cc1` [Example 6, 4-(4-(4-(4-cyclohexylbenzoylamino)phenyl)-2-thiazolylamino)benzoic acid]: the melting point is 250 °C (dec.).

`O=C(O)c1ccc(C2(c3nc(-c4ccc(OCc5ccc(Cl)c(Cl)c5)cc4)cs3)CCCCC2)cc1` [Example 93, 4-(1-(4-(4-(3,4-dichlorobenzyloxy)phenyl)-2-thiazolyl)cyclohexyl)benzoic acid] showed a melting point of 168 to 171 °C.

Consider `O=C(O)c1ccc(N(Cc2ccc(Cl)c(Cl)c2)c2nc(-c3cc(Cl)ccc3OCc3ccccc3)cs2)cc1` [Example 167, 4-(N-(4-(2-benzyloxy-5-chlorophenyl)-2-thiazolyl)-N-(3,4-dichlorobenzyl)amino)benzoic acid], for which the melting point is 196 to 198 °C. With `CC(C)N(Cc1ccc(C(=O)O)cc1)c1nc(-c2ccc(N(Cc3ccccc3)Cc3ccccc3)cc2)cs1` [Example 109, 4-((N-(4-(4-dibenzylaminophenyl)-2-thiazolyl)-N-isopropylamino)methyl)benzoic acid], the melting point was 144 to 146 °C.

Regarding `O=C(O)c1ccc(Nc2nc(-c3ccc(OCc4ccc(Cl)c(Cl)c4)cc3)cs2)cc1` [Example 94, 4-(4-(4-(3,4-dichlorobenzyloxy)phenyl)-2-thiazolylamino)benzoic acid], the melting point is 230 °C (dec.). In the case of `O=C(O)c1ccc(Nc2nc(-c3cccc(OCc4ccc(C5CCCCC5)cc4)c3)cs2)cc1` [Example 138, 4-(4-(3-(4-cyclohexylbenzyloxy)phenyl)-2-thiazolylamino)benzoic acid] it was 235 to 236 °C; in that of `CC(C)N(Cc1ccc(C(=O)O)cc1)c1nc(-c2ccc(NS(=O)(=O)c3ccc(Cl)c(Cl)c3)cc2)cs1` [Example 105, 4-((N-(4-(4-(3,4-dichlorobenzenesulfonylamino)phenyl)-2-thiazolyl)-N-isopropylamino)methyl)benzoic acid], 193 to 195 °C; in that of `CC(C)N(c1ccc(C(=O)O)cc1)c1nc(-c2ccc(NC(=O)c3ccc(C4CCCCC4)cc3)cc2)cs1` [Example 10, 4-(N-(4-(4-(4-cyclohexylbenzoylamino)phenyl)-2-thiazolyl)-N-isopropylamino)benzoic acid], 230 °C (dec.). In the case of `CN(CCc1ccc(C(F)(F)F)cc1)c1ccc(-c2csc(N(C)Cc3ccc(C(=O)O)cc3)n2)cc1` [Example 236, 4-((N-methyl-N-(4-(4-(N-methyl-N-(2-(4-trifluoromethylphenyl)ethyl)amino)phenyl)-2-thiazolyl)amino)methyl)benzoic acid] it was 158 to 159 °C.
